Results on ten substances are retold here after US8993566B2, “Quinoline compound composing 1,2,4-triazine-dione and use thereof” (Wuhan Shengyun Biopharma Co., Ltd., priority 2012, dated 2015).

Assay [1] has as its system human nonsmall-cell lung cancer cell H460. As to the kind of experiment: In vitro anti-tumor cell activity (MTT), H460. It counts as cell-based. Particulars: H460 cells, MTT, 72 h, Bliss method. An outline of the steps: (§1)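 Cells seeded at 10^4 cells/well and grown 24 h were exposed to compounds for 72 h. Viability was read by MTT (0.5 mg/mL, 4 h) with formazan dissolved in DMSO, and IC50 was derived by the Bliss method.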

Assay [2] has as its system human colon cancer cell HT-29. As to the kind of experiment: In vitro anti-tumor cell activity (MTT), HT-29. Particulars: HT-29 cells, MTT, 72 h, Bliss method. It counts as cell-based. An outline of the steps:
as §1

Assay [3] has as its system human gastric cancer cell MKN-45. Description: In vitro anti-tumor cell activity (MTT), MKN-45. The class given is cell-based. Particulars: MKN-45 cells, MTT, 72 h, Bliss method. An outline of the steps:
as §1

Assay [4] relates to human hepatoma carcinoma cell line SMMC-7721. As to the kind of experiment: In vitro anti-tumor cell activity (MTT), SMMC-7721. It counts as cell-based. Conditions: SMMC-7721 cells, MTT, 72 h, Bliss method. The procedure, abridged: as §1
For assay [5], the target named is T1, c-Met kinase (His-tagged recombinant human Met (amino acids 974-end)) (Homo sapiens, UniProt P08581).
T1 construct: His-tagged recombinant human Met (amino acids 974-end); His
As to the kind of experiment: c-Met Enzyme Activity Inhibition Assay (ELISA). It counts as biochemical. Conditions: 50 pM c-Met, 5 μM ATP, room temperature 20 min. The procedure, abridged: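 Baculovirus-expressed His-tagged c-Met (974-end) at 50 pM with 5 μM ATP, 25 mM MOPS pH 7.4, MgCl2, MnCl2, vanadate, DTT, 1% DMSO, incubated 20 min at room temperature on POT-coated plate. Phosphorylated polymer detected with HRP-conjugated PY20 antibody, TMB read at 450 nm.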
Background: In an ELISA, binding on a coated surface is turned into a signal by an enzyme label.

T1 sequence (P08581 956-1390): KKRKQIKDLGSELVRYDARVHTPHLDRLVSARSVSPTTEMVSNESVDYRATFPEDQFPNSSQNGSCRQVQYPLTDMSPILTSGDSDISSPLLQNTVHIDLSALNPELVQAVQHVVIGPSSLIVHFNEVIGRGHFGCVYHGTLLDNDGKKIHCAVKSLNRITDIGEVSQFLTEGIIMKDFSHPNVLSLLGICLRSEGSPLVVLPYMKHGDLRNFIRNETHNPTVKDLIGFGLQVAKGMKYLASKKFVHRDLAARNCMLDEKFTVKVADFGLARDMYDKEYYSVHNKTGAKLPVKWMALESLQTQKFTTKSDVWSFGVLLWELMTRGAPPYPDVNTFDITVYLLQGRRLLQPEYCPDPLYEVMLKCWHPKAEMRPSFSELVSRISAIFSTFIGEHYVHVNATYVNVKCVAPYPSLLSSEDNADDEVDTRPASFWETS

Consider “N-[3-fluoro-4-[6-methoxy-7-[3-(4-methyl-1-piperidinyl)propyloxy]quinolin-4-oxy]phenyl]-2-phenyl-4-methyl-3,5-dioxo-2,3,4,5-tetrahydro-1,2,4-triazine-6-carboxamide [Example 4]”, for which, in assay [1], the “H460 IC50” value is 0.087 µg/mL. Besides, the “HT-29 IC50” value in assay [2] was determined as 0.13 µg/mL. Besides, the “MKN-45 IC50” value in assay [3] turned out to be 0.053 µg/mL. Further, the “SMMC-7721 IC50” value in assay [4] came out at 0.071 µg/mL. In addition, the “IC50 for inhibiting c-Met kinase” value in assay [5] turned out to be 0.63 µg/mL.
For “N-[3-fluoro-4-[6-methoxy-7-[3-(4-morpholinyl)propyloxy]quinolin-4-oxy]phenyl]-2-(2-fluorophenyl)-4-methyl-3,5-dicarbonyl-2,3,4,5-tetrahydro-1,2,4-triazine-6-carboxamide [Example 23]” the same measures were 0.57 µg/mL, 0.35 µg/mL, 0.0028 µg/mL, 0.44 µg/mL and 0.82 µg/mL.
As to “N-[3-fluoro-4-[7-methoxy-6-[3-(1-piperidinyl)propyloxy]quinolin-4-oxy]phenyl]-2-(2-trifluoromethylphenyl)-4-allyl-3,5-dicarbonyl-2,3,4,5-tetrahydro-1,2,4-triazine-6-carboxamide [Example 37]”, in assay [1], the “H460 IC50” value came out at 1.7 µg/mL. For the same substance, the “HT-29 IC50” value in assay [2] turned out to be 0.88 µg/mL. Also, the “MKN-45 IC50” value in assay [3] amounted to 0.12 µg/mL. Also, the “SMMC-7721 IC50” value in assay [4] was determined as 2.3 µg/mL. The “IC50 for inhibiting c-Met kinase” value in assay [5] amounted to 3.7 µg/mL.
On to “N-[3-fluoro-4-[7-methoxy-6-[3-(1-pyrrolidyl)propyloxy]quinolin-4-oxy]phenyl]-2-(2-trifluoromethylphenyl)-4-butyl-3,5-dicarbonyl-2,3,4,5-tetrahydro-1,2,4-triazine-6-carboxamide [Example 35]”, for which the “H460 IC50” value in assay [1] was 0.12 µg/mL. For the same substance, in assay [2], the “HT-29 IC50” value turned out to be 0.079 µg/mL. The “MKN-45 IC50” value in assay [3] worked out at 0.005 µg/mL. For the same substance, in assay [4], the “SMMC-7721 IC50” value stood at 0.31 µg/mL. Also, the “IC50 for inhibiting c-Met kinase” value in assay [5] is 0.03 µg/mL.
With “N-[3-fluoro-4-[7-methoxy-6-[3-(1-pyrrolidyl)propyloxy]quinolin-4-oxy]phenyl]-2-(3-fluorophenyl)-4-butyl-3,5-dioxo-2,3,4,5-tetrahydro-1,2,4-triazine-6-carboxamide [Example 30]”, in assay [1], the “H460 IC50” value came out at 0.18 µg/mL. Further, the “HT-29 IC50” value in assay [2] was determined as 0.11 µg/mL. The “MKN-45 IC50” value in assay [3] is 0.043 µg/mL. For the same substance, the “SMMC-7721 IC50” value in assay [4] was 0.46 µg/mL. In addition, the “IC50 for inhibiting c-Met kinase” value in assay [5] came to 0.058 µg/mL.
On to “N-[3-fluoro-4-[7-methoxy-6-[3-(4-methyl-1-piperidinyl)propyloxy]quinolin-4-oxy]phenyl]-2-(2-trifluoromethylphenyl)-4-allyl-3,5-dioxo-2,3,4,5-tetrahydro-1,2,4-triazine-6-carboxamide [Example 36]”, for which the “H460 IC50” value in assay [1] amounted to 1.7 µg/mL. Further, in assay [2], the “HT-29 IC50” value was 0.43 µg/mL. Moreover, the “MKN-45 IC50” value in assay [3] amounted to 0.21 µg/mL. For the same substance, the “SMMC-7721 IC50” value in assay [4] is 2.4 µg/mL. The “IC50 for inhibiting c-Met kinase” value in assay [5] was found to be 1.1 µg/mL.
For “N-[3-fluoro-4-[7-methoxy-6-[3-(4-methyl-1-piperidinyl)propyloxy]quinolin-4-oxy]phenyl]-2-(2-trifluoromethylphenyl)-4-butyl-3,5-dicarbonyl-2,3,4,5-tetrahydro-1,2,4-triazine-6-carboxamide [Example 33]”, the “H460 IC50” value in assay [1] worked out at 0.15 µg/mL. Further, in assay [2], the “HT-29 IC50” value came to 0.18 µg/mL. For the same substance, the “MKN-45 IC50” value in assay [3] stood at 0.09 µg/mL. Moreover, the “SMMC-7721 IC50” value in assay [4] was 0.43 µg/mL. Further, in assay [5], the “IC50 for inhibiting c-Met kinase” value stood at 0.27 µg/mL.
“N-[3-fluoro-4-[7-methoxy-6-[3-(4-methyl-1-piperidinyl)propyloxy]quinolin-4-oxy]phenyl]-2-phenyl-4-butyl-3,5-dioxo-2,3,4,5-tetrahydro-1,2,4-triazine-6-carboxamide [Example 28]”: the “H460 IC50” value in assay [1] was 0.25 µg/mL. In assay [2], the “HT-29 IC50” value was determined as 0.31 µg/mL. For the same substance, in assay [3], the “MKN-45 IC50” value is 0.077 µg/mL. Also, the “SMMC-7721 IC50” value in assay [4] was 0.44 µg/mL. In addition, the “IC50 for inhibiting c-Met kinase” value in assay [5] stood at 0.31 µg/mL.
For “N-[3-fluoro-4-[7-methoxy-6-[3-(4-morpholinyl)propyloxy]quinolin-4-oxy]phenyl]-2-(2-fluorophenyl)-4-butyl-3,5-dioxo-2,3,4,5-tetrahydro-1,2,4-triazine-6-carboxamide [Example 29]”, the “H460 IC50” value in assay [1] was determined as 0.0056 µg/mL. The “HT-29 IC50” value in assay [2] amounted to 0.12 µg/mL. Further, the “MKN-45 IC50” value in assay [3] was 0.0009 µg/mL. Besides, the “SMMC-7721 IC50” value in assay [4] was 0.014 µg/mL. The “IC50 for inhibiting c-Met kinase” value in assay [5] was determined as 0.61 µg/mL.
With “N-[3-fluoro-4-[7-methoxy-6-[3-(4-morpholinyl)propyloxy]quinolin-4-oxy]phenyl]-2-(3-trifluoromethylphenyl)-4-butyl-3,5-dicarbonyl-2,3,4,5-tetrahydro-1,2,4-triazine-6-carboxamide [Example 34]”, the “H460 IC50” value in assay [1] was found to be 0.028 µg/mL. In addition, the “HT-29 IC50” value in assay [2] came out at 0.11 µg/mL. The “MKN-45 IC50” value in assay [3] was 0.013 µg/mL. In addition, the “SMMC-7721 IC50” value in assay [4] was determined as 0.18 µg/mL. Besides, the “IC50 for inhibiting c-Met kinase” value in assay [5] came to 0.017 µg/mL.
